Results reported in a melting point compilation (Tetko et al.; mined from patent text by program, amines drawn as free bases though some values may be those of a salt).

Structure (SMILES)	melting point [°C]
CCC1(C)C(=O)c2c(cc(OC)c(Cl)c2Cl)C1c1ccccc1 (stereo not drawn)	132
CCN1CCN(CCCOc2cc3ncc(C#N)c(Nc4ccc(Sc5nccn5C)c(Cl)c4)c3cc2OCCOC)CC1	188 to 190
Cc1ccccc1-n1cc(C#N)c(=O)[nH]c1=O	252
Cn1ccc(N)cc1=O	200 to 202
COC(=O)Cc1ccc(C#N)cc1	40 to 41
CC(=O)Nn1c(=O)c(=O)[nH]c2ccccc21	211 to 213
O=C(O)CCCC1Cc2ccc(Cl)cc2C1=O (stereo not drawn)	141 to 142
COCCOCOc1c(C(C)(C)C)cc(-c2noc(=O)[nH]2)cc1C(C)(C)C	112 to 114
NS(=O)(=O)Oc1ccc(C(F)(F)F)cc1	111 to 112
Cc1cccc(OCC2=NCCN2C(=S)N(C)C)c1C	124 to 127
C[C@@H](NC(=O)c1c[nH]c2ncc(-c3nccc4ccccc34)nc12)C(=O)N1CC(C#N)C1	180 to 185
O=C1NCCN1c1ccc(S(=O)(=O)Nc2ccc(Cl)cc2)cc1	234 to 236
O=[N+]([O-])c1cc(C(F)(F)F)c(Cl)cc1NCP(=O)(O)O	207
Cc1nccn1-c1ccc(NC(=O)CCc2cnoc2-c2ccc(Cl)cc2)cn1	193 to 194
Cc1nc(-c2ccc(OC(C)C)c([N+](=O)[O-])c2)sc1C(=O)O	211 to 213
CC(C(=O)OC(C)(C)C)c1ccc(N2Cc3ccc(Br)cc3C2=O)cc1 (stereo not drawn)	164 to 165
O=C1NC(=O)C(Cc2ccc(S(=O)(=O)CCc3ccccc3)cc2)S1 (stereo not drawn)	201 to 203
CNC(=O)NS(=O)(=O)c1ccccc1OC(Cl)=CCl	225 to 226
O=[N+]([O-])c1cccc(CBr)c1CBr	68 to 70
C=C(C)COc1ccc(OC)cc1-c1nc2ccccc2[nH]1	144 to 148
CCCCNS(=O)(=O)CC(O)C(O)C(CC1CCCCC1)NC(=O)c1ccnnc1 (stereo not drawn)	170 to 172
Cc1ccc(OC2SCC(O)C(O)C2O)c(F)n1 (stereo not drawn)	167 to 170

Structure (SMILES)	melting point [°C]
CSC(=O)c1cccc2c1[nH]c1ccccc12	122 to 123
Brc1cn2c(Br)cnc2c(NCc2ccco2)n1	143
CCOc1cc(N)ccc1C(O)c1cc(C)ccn1 (stereo not drawn)	102 to 105
COc1ccc(N=C(Cl)c2ccc(OC)cc2)cc1	116
O=C1NN=C(c2cccc(Br)c2)CC1O (stereo not drawn)	158 to 161
Cc1cccc(C)c1N1CCCNC1=S	249 to 251
O=C(NCCN1CCN(C(c2ccccc2)c2cccnc2)CC1)C1CSC(c2cccnc2)N1 (stereo not drawn)	130 to 131
O=C1NCCC[C@@H]1NS(=O)(=O)c1cc(F)cc(F)c1	170 to 174
CC(=Cc1ccc(C(C)C)cc1)c1ccc2c(c1)C(C)(C)CCC2(C)C	86 to 87
O=C(O)CCc1nn(-c2ccc(F)cc2)cc1-c1ccc(Cl)cc1	131
Nc1cccc(C2=NCCO2)c1	126 to 128
O=C1c2cc3nnn(CCC4CCCCC4)c(=O)c3cc2OC2CCCN12 (stereo not drawn)	170
COc1cc(Nc2nccc(-c3ccc(N4CC[C@@H](N(C)C)C4)nc3)n2)cc(OC)c1OC	150 to 151
Cc1cc(C)cc(P(c2cc(C)cc(C)c2)c2cccc3c2-c2c(cccc2P(c2cc(C)cc(C)c2)c2cc(C)cc(C)c2)OCCCO3)c1	232 to 234
COc1ccc(Br)c(C(=O)NNS(=O)(=O)c2ccccc2)c1	150 to 152
CCCC(CCC)(CCC)NC(=O)N(C)C	88
Cc1cc(-n2cncn2)ccc1[N+](=O)[O-]	116 to 117
COC(=O)[C@H]1CC[C@@H](C(=O)O)CN1S(C)(=O)=O (racemic)	130 to 133
CC(C)(C)OC(=O)C1=Cc2cc(OCc3ccccc3)ccc2OC1	64 to 67
CS(=O)(=O)N(CCI)N(S(C)(=O)=O)S(C)(=O)=O	136 to 138
COC(=O)NC=Cc1ccc(OCC(O)CNC(C)C)cc1 (stereo not drawn)	128 to 129
